In PubChem BioAssay (NCI):
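96-well plates; 48 h exposure; 5 concentrations. Endpoints by linear interpolation between flanking doses. Not reached: highest tested concentration assigned. TGI: total growth inhibition.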 Calls of active or inactive are those of the source. Rule as the data show it: active = GI50 below about 0.43 µM; inactive = the rest.

Assays:
Test in all cases: growth of human tumour cells (NCI), 48 h
A498 renal = tested on: A498 renal
A549 NSCLC = tested on: A549 NSCLC
OVCAR-3 ovarian = tested on: OVCAR-3 ovarian
KM12 colon = tested on: KM12 colon
SK-MEL-2 melanoma = tested on: SK-MEL-2 melanoma
K-562 leukemia = tested on: K-562 leukemia
T-47D breast = tested on: T-47D breast
U251 CNS = tested on: U251 CNS
ACHN renal = tested on: ACHN renal
RPMI-8226 leukemia = tested on: RPMI-8226 leukemia
LOX IMVI melanoma = tested on: LOX IMVI melanoma
MDA-N = tested on: MDA-N
HT29 colon = tested on: HT29 colon
OVCAR-5 ovarian = tested on: OVCAR-5 ovarian
NCI-H522 lung = tested on: NCI-H522 lung
SNB-19 CNS = tested on: SNB-19 CNS
HS 578T breast = tested on: HS 578T breast
SN12C renal = tested on: SN12C renal
HCC-2998 colon = tested on: HCC-2998 colon
MOLT-4 leukemia = tested on: MOLT-4 leukemia
M14 melanoma = tested on: M14 melanoma
SF-539 CNS = tested on: SF-539 CNS
HCT-15 colon = tested on: HCT-15 colon
TK-10 renal = tested on: TK-10 renal
SF-295 CNS = tested on: SF-295 CNS
NCI-H460 lung = tested on: NCI-H460 lung
SK-OV-3 ovarian = tested on: SK-OV-3 ovarian
SR leukemia = tested on: SR leukemia
SNB-75 CNS = tested on: SNB-75 CNS
OVCAR-8 ovarian = tested on: OVCAR-8 ovarian
DU-145 prostate = tested on: DU-145 prostate
MDA-MB-435 = tested on: MDA-MB-435
CCRF-CEM leukemia = tested on: CCRF-CEM leukemia
HCT-116 colon = tested on: HCT-116 colon
NCI/ADR-RES ovarian = tested on: NCI/ADR-RES ovarian
PC-3 prostate = tested on: PC-3 prostate
HL-60(TB) leukemia = tested on: HL-60(TB) leukemia
UACC-62 melanoma = tested on: UACC-62 melanoma
UO-31 renal = tested on: UO-31 renal
MALME-3M melanoma = tested on: MALME-3M melanoma
NCI-H226 lung = tested on: NCI-H226 lung
SK-MEL-5 melanoma = tested on: SK-MEL-5 melanoma
RXF 393 renal = tested on: RXF 393 renal
786-0 renal = tested on: 786-0 renal
MCF7 breast = tested on: MCF7 breast
UACC-257 melanoma = tested on: UACC-257 melanoma
BT-549 breast = tested on: BT-549 breast
EKVX NSCLC = tested on: EKVX NSCLC
COLO 205 colon = tested on: COLO 205 colon
IGROV1 ovarian = tested on: IGROV1 ovarian
HOP-62 NSCLC = tested on: HOP-62 NSCLC
OVCAR-4 ovarian = tested on: OVCAR-4 ovarian
MDA-MB-231 breast = tested on: MDA-MB-231 breast
SF-268 CNS = tested on: SF-268 CNS
CAKI-1 renal = tested on: CAKI-1 renal
NCI-H23 lung = tested on: NCI-H23 lung
SW-620 colon = tested on: SW-620 colon
SK-MEL-28 melanoma = tested on: SK-MEL-28 melanoma
HOP-92 NSCLC = tested on: HOP-92 NSCLC

With `COc1ccc(NC2C(=O)C3(C)CCC2C3(C)C)cc1` (configuration not stated) the TGI (A498 renal) was > 100 µM, the TGI (A549 NSCLC) was > 100 µM and the TGI (OVCAR-3 ovarian) was > 100 µM. For the same molecule, the TGI (KM12 colon) was > 100 µM, the TGI (SK-MEL-2 melanoma) was > 100 µM and the TGI (K-562 leukemia) was > 100 µM. The TGI (T-47D breast) was > 100 µM, the TGI (U251 CNS) was > 100 µM and the TGI (ACHN renal) was > 100 µM. The TGI (RPMI-8226 leukemia) was > 100 µM, the TGI (LOX IMVI melanoma) was > 100 µM and the TGI (MDA-N) was > 100 µM. The TGI (HT29 colon) was > 100 µM, the TGI (OVCAR-5 ovarian) was > 100 µM and the TGI (NCI-H522 lung) was > 100 µM. The TGI (SNB-19 CNS) was > 100 µM, the TGI (HS 578T breast) was > 100 µM and the TGI (SN12C renal) was > 100 µM. The TGI (HCC-2998 colon) was > 100 µM, the TGI (MOLT-4 leukemia) was > 100 µM and the TGI (M14 melanoma) was > 100 µM. The TGI (SF-539 CNS) was > 100 µM, the TGI (HCT-15 colon) was > 100 µM and the TGI (TK-10 renal) was > 100 µM. For the same molecule, the TGI (SF-295 CNS) was > 100 µM, the TGI (NCI-H460 lung) was > 100 µM and the TGI (SK-OV-3 ovarian) was > 100 µM. For the same molecule, the TGI (SR leukemia) was > 100 µM, the TGI (SNB-75 CNS) was > 100 µM and the TGI (OVCAR-8 ovarian) was > 100 µM. For the same molecule, the TGI (DU-145 prostate) was > 100 µM, the TGI (MDA-MB-435) was > 100 µM and the TGI (CCRF-CEM leukemia) was > 100 µM. The TGI (HCT-116 colon) was > 100 µM, the TGI (NCI/ADR-RES ovarian) was > 100 µM and the TGI (PC-3 prostate) was > 100 µM. The TGI (HL-60(TB) leukemia) was > 100 µM, the TGI (UACC-62 melanoma) was > 100 µM and the TGI (UO-31 renal) was > 100 µM. The TGI (MALME-3M melanoma) was > 100 µM, the TGI (NCI-H226 lung) was > 100 µM and the TGI (SK-MEL-5 melanoma) was 99.8 µM. For the same molecule, the TGI (RXF 393 renal) was > 100 µM, the TGI (786-0 renal) was > 100 µM and the TGI (MCF7 breast) was > 100 µM. The TGI (UACC-257 melanoma) was > 100 µM, the TGI (BT-549 breast) was > 100 µM and the TGI (EKVX NSCLC) was > 100 µM. For the same molecule, the TGI (COLO 205 colon) was > 100 µM, the TGI (IGROV1 ovarian) was > 100 µM and the TGI (HOP-62 NSCLC) was > 100 µM. For the same molecule, the TGI (OVCAR-4 ovarian) was > 100 µM, the TGI (MDA-MB-231 breast) was > 100 µM and the TGI (SF-268 CNS) was > 100 µM. For the same molecule, the TGI (CAKI-1 renal) was > 100 µM, the TGI (NCI-H23 lung) was > 100 µM and the TGI (SW-620 colon) was > 100 µM. For the same molecule, the TGI (SK-MEL-28 melanoma) was > 100 µM and the TGI (HOP-92 NSCLC) was > 100 µM.

With `CCCCCCCCCCCC(=O)N(CCCCCCCCCCC(=O)O)CC(O)C(O)C(OC1OC(CO)C(O)C(O)C1O)C(O)CO` (configuration not stated) the TGI (A498 renal) was > 100 µM, the TGI (A549 NSCLC) was > 100 µM and the TGI (OVCAR-3 ovarian) was > 100 µM. For the same molecule, the TGI (KM12 colon) was > 100 µM, the TGI (SK-MEL-2 melanoma) was > 100 µM and the TGI (K-562 leukemia) was > 100 µM. The TGI (T-47D breast) was > 100 µM, the TGI (U251 CNS) was > 100 µM and the TGI (ACHN renal) was > 100 µM. The TGI (RPMI-8226 leukemia) was > 100 µM, the TGI (LOX IMVI melanoma) was > 100 µM and the TGI (MDA-N) was > 100 µM. For the same molecule, the TGI (HT29 colon) was > 100 µM, the TGI (OVCAR-5 ovarian) was > 100 µM and the TGI (NCI-H522 lung) was > 100 µM. The TGI (SNB-19 CNS) was > 100 µM, the TGI (HS 578T breast) was > 100 µM and the TGI (SN12C renal) was > 100 µM. The TGI (HCC-2998 colon) was > 100 µM, the TGI (MOLT-4 leukemia) was > 100 µM and the TGI (M14 melanoma) was > 100 µM. For the same molecule, the TGI (SF-539 CNS) was > 100 µM, the TGI (HCT-15 colon) was > 100 µM and the TGI (TK-10 renal) was > 100 µM. For the same molecule, the TGI (SF-295 CNS) was > 100 µM, the TGI (NCI-H460 lung) was > 100 µM and the TGI (SK-OV-3 ovarian) was > 100 µM. For the same molecule, the TGI (SR leukemia) was > 100 µM, the TGI (SNB-75 CNS) was > 100 µM and the TGI (OVCAR-8 ovarian) was > 100 µM. For the same molecule, the TGI (DU-145 prostate) was > 100 µM, the TGI (MDA-MB-435) was > 100 µM and the TGI (CCRF-CEM leukemia) was > 100 µM. The TGI (HCT-116 colon) was > 100 µM, the TGI (NCI/ADR-RES ovarian) was > 100 µM and the TGI (PC-3 prostate) was > 100 µM. The TGI (HL-60(TB) leukemia) was > 100 µM, the TGI (UACC-62 melanoma) was > 100 µM and the TGI (UO-31 renal) was > 100 µM. The TGI (MALME-3M melanoma) was > 100 µM, the TGI (NCI-H226 lung) was > 100 µM and the TGI (SK-MEL-5 melanoma) was > 100 µM. For the same molecule, the TGI (RXF 393 renal) was > 100 µM, the TGI (786-0 renal) was > 100 µM and the TGI (MCF7 breast) was > 100 µM. For the same molecule, the TGI (UACC-257 melanoma) was > 100 µM, the TGI (BT-549 breast) was > 100 µM and the TGI (EKVX NSCLC) was > 100 µM. The TGI (COLO 205 colon) was > 100 µM, the TGI (IGROV1 ovarian) was > 100 µM and the TGI (HOP-62 NSCLC) was > 100 µM. The TGI (OVCAR-4 ovarian) was > 100 µM, the TGI (MDA-MB-231 breast) was > 100 µM and the TGI (SF-268 CNS) was > 100 µM. The TGI (CAKI-1 renal) was > 100 µM, the TGI (NCI-H23 lung) was > 100 µM and the TGI (SW-620 colon) was > 100 µM. For the same molecule, the TGI (SK-MEL-28 melanoma) was > 100 µM and the TGI (HOP-92 NSCLC) was > 100 µM.

`C#CCN(Cc1cc2c(=O)[nH]c(C)nc2cc1C)c1ccc(C(=O)N[C@@H](CCc2nn[nH]n2)C(=O)O)c(F)c1` was tested, and the outcome (A498 renal) was “inactive”, the outcome (A549 NSCLC) was “inactive” and the outcome (OVCAR-3 ovarian) was “inactive”. For the same molecule, the outcome (KM12 colon) was “inactive”, the outcome (SK-MEL-2 melanoma) was “inactive” and the outcome (K-562 leukemia) was “inactive”. The outcome (T-47D breast) was “inactive”, the outcome (U251 CNS) was “inactive” and the outcome (ACHN renal) was “inactive”. For the same molecule, the outcome (RPMI-8226 leukemia) was “inactive”, the outcome (LOX IMVI melanoma) was “inactive” and the outcome (MDA-N) was “inactive”. The outcome (HT29 colon) was “inactive”, the outcome (OVCAR-5 ovarian) was “inactive” and the outcome (NCI-H522 lung) was “inactive”. The outcome (SNB-19 CNS) was “inactive”, the outcome (HS 578T breast) was “inactive” and the outcome (SN12C renal) was “inactive”. The outcome (HCC-2998 colon) was “inactive”, the outcome (MOLT-4 leukemia) was “inactive” and the outcome (M14 melanoma) was “inactive”. The outcome (SF-539 CNS) was “inactive”, the outcome (HCT-15 colon) was “inactive” and the outcome (TK-10 renal) was “inactive”. For the same molecule, the outcome (SF-295 CNS) was “inactive”, the outcome (NCI-H460 lung) was “inactive” and the outcome (SK-OV-3 ovarian) was “inactive”. The outcome (SR leukemia) was “inactive”, the outcome (SNB-75 CNS) was “inactive” and the outcome (OVCAR-8 ovarian) was “inactive”. The outcome (DU-145 prostate) was “inactive”, the outcome (MDA-MB-435) was “inactive” and the outcome (CCRF-CEM leukemia) was “inactive”. The outcome (HCT-116 colon) was “inactive”, the outcome (NCI/ADR-RES ovarian) was “inactive” and the outcome (PC-3 prostate) was “inactive”. The outcome (HL-60(TB) leukemia) was “inactive”, the outcome (UACC-62 melanoma) was “inactive” and the outcome (UO-31 renal) was “inactive”. For the same molecule, the outcome (MALME-3M melanoma) was “inactive”, the outcome (NCI-H226 lung) was “inactive” and the outcome (SK-MEL-5 melanoma) was “inactive”. The outcome (RXF 393 renal) was “inactive”, the outcome (786-0 renal) was “inactive” and the outcome (MCF7 breast) was “inactive”. The outcome (UACC-257 melanoma) was “inactive”, the outcome (BT-549 breast) was “inactive” and the outcome (EKVX NSCLC) was “inactive”. The outcome (COLO 205 colon) was “inactive”, the outcome (IGROV1 ovarian) was “inactive” and the outcome (HOP-62 NSCLC) was “inactive”. For the same molecule, the outcome (OVCAR-4 ovarian) was “inactive”, the outcome (MDA-MB-231 breast) was “inactive” and the outcome (SF-268 CNS) was “inactive”. The outcome (CAKI-1 renal) was “inactive”, the outcome (NCI-H23 lung) was “inactive” and the outcome (SW-620 colon) was “inactive”. For the same molecule, the outcome (SK-MEL-28 melanoma) was “inactive” and the outcome (HOP-92 NSCLC) was “inactive”.
